The values below come from patent EP3807270B1, “NOVEL HETEROARYL HETEROCYCLYL COMPOUNDS FOR THE TREATMENT OF AUTOIMMUNE DISEASE” (F. Hoffmann-La Roche AG, priority 2018, dated 2019).

A word on the inhibition: it is the relative decrease from the control value, in per cent. Usually IC20 stands for the concentration at which the effect reaches the 20% level.

A value given as a limit tells only on which side of the number the result lay.

In one series the target is T1, CYP2D6 (Homo sapiens, UniProt P10635).
T1 construct: tissue BD-Gentest 452117; host or cells: human liver microsomes
T1 sequence (P10635 whole entry): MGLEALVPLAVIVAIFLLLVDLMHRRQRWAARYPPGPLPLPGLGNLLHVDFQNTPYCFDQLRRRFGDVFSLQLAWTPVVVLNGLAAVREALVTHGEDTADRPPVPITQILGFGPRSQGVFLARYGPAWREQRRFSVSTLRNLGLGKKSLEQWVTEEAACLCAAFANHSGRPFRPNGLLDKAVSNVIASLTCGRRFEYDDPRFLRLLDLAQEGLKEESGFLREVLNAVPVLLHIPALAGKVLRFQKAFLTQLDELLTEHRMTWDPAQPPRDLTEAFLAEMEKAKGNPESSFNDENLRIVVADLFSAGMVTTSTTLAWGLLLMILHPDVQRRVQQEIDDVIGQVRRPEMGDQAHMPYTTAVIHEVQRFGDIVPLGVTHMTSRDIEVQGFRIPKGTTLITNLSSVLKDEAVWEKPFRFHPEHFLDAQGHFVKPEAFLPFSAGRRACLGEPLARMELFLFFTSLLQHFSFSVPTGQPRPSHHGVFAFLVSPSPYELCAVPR
In words: CYP inhibition assay in human liver microsome. The format is in vitro ADME. The following applies: human liver microsomes, probe dextromethorphan, 10µM test compound, dextromethorphan substrate, <0: not or weak inhibitor, read-out: CYP 2D6 inhibition %@10µM. The method in brief:
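HLM mixed with CYP2D6 substrate, preincubated 10 min at 37 °C, started with NADPH regenerating system and run 10 min at 37 °C before acetonitrile quench. Metabolite measured by RapidFire MS/MS against D3-dextrorphan internal standard. % inhibition scaled between DMSO and concentrated-inhibitor controls.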

The target of another series is T2, hERG channel (Homo sapiens, UniProt Q12809).
T2 construct: expressed in transfected cells; host or cells: CHO (Chinese hamster ovary)
T2 sequence (Q12809 whole entry): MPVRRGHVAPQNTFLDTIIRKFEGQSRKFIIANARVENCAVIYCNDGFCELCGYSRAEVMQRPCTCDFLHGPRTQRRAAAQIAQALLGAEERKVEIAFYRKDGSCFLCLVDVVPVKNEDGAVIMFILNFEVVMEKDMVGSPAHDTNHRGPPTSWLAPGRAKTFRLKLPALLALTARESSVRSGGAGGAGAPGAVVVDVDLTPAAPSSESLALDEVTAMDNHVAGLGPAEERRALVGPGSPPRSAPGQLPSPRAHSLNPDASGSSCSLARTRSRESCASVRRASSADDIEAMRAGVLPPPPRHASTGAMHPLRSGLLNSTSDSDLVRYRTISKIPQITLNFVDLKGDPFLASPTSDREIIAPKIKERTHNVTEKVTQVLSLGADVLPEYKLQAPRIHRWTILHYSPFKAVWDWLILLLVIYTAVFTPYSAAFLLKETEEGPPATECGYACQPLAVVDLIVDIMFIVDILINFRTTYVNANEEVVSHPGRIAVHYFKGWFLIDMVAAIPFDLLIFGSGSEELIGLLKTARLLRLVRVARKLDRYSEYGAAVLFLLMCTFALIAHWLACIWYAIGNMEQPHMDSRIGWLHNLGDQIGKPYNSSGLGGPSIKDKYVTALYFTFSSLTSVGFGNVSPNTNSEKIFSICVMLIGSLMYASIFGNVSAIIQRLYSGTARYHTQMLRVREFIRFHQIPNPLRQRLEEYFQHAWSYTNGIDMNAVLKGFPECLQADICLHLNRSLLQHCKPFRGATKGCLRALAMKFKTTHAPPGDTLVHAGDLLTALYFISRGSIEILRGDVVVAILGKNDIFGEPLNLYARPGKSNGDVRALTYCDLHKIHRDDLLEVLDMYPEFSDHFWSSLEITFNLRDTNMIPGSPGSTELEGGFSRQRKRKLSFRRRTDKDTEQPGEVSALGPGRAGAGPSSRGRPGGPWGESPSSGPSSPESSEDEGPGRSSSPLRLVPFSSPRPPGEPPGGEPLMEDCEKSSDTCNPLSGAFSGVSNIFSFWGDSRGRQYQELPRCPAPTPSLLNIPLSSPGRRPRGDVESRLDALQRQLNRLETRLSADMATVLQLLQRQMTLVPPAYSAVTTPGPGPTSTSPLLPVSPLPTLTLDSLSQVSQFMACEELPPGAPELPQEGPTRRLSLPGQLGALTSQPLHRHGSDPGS
Put plainly: hERG channel inhibition assay (patch-clamp, CHO hERG cells). The format is cell-based. Particulars: for IC50 / IC20: CHO hERG cells, whole-cell patch-clamp; for IC20: human, CHO cells stably expressing hERG; for hERG IC20 / TLR7 IC50 / hERG IC20 / TLR9 IC50 / hERG IC20 / TLR8 IC50: safety ratio; for hERG IC20 / TLR7 IC50: TLR7 IC50 of ER compounds from Table 1; for hERG IC20 / TLR9 IC50: TLR9 IC50 of ER compounds from Table 1. The method in brief:
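Whole-cell voltage-clamp on CHO cells stably expressing human hERG, IKhERG evoked at 0.1 Hz. Compound applied at rising concentrations, each held 3-10 min to steady state; current amplitude and kinetics expressed against control taken as 100%.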
(hERG is a cardiac potassium channel; its block is linked to QT prolongation.)

Another series addresses T3, hTLR9 (Homo sapiens, UniProt Q9NR96).
T3 sequence (Q9NR96 26-1032): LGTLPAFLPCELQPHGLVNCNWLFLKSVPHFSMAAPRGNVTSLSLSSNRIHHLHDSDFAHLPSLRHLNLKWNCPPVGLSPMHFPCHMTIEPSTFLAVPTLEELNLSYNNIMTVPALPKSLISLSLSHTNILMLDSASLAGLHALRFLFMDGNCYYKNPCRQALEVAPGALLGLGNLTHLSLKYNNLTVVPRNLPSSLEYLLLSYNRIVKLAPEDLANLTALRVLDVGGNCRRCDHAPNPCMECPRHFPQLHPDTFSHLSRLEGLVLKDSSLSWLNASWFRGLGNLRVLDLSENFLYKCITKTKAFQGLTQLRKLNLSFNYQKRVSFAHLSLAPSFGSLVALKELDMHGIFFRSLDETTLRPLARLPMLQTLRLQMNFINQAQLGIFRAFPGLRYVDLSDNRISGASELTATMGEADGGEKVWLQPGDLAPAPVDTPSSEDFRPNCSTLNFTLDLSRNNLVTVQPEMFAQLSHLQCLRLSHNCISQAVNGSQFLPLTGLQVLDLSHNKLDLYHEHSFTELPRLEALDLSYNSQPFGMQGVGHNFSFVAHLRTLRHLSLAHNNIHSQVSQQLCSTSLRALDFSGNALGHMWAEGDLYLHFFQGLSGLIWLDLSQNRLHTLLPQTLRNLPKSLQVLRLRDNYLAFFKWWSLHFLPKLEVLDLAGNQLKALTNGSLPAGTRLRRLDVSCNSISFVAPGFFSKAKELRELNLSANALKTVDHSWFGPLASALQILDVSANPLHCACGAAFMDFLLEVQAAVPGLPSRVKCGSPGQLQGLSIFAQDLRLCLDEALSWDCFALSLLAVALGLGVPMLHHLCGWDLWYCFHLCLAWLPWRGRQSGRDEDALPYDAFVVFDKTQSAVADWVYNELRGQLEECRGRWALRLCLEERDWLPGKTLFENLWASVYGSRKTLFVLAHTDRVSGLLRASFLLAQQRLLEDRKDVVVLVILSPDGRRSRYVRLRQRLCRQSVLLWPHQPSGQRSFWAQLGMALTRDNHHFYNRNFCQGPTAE
On the set-up: host or cells: HEK. The following applies: data disclosed in US20150105370; read-out: HEK/hTLR9 IC50; cited from earlier work.

Take `C[C@@H]1CN(c2ccc(C#N)c3nccnc23)C[C@H](CN2CCN(c3cc4c(cn3)CCN[C@@H]4C)CC2)O1` (single isomer, unassigned) [Example 87]: on CYP2D6, the inhibition at 10 min, 10 µM was -2.5%.
`C[C@@H]1CN(c2ccc(C#N)c3nccnc23)C[C@H](CN2CCN(c3cc4c(cn3)CCN[C@H]4C)CC2)O1` (single isomer, unassigned) [Example 88]: the inhibition at 10 min, 10 µM on CYP2D6 turned out to be 9.5%.
Consider `C[C@@H]1CN(c2ccc(C#N)c3ncccc23)C[C@H](CN2CCN(c3ccncc3)CC2)O1` [ER-888286, reference compound], for which, at hERG channel, the IC50 was 1.3 µM, the IC20 amounted to 0.348 µM, the “hERG IC20 / TLR7 IC50” value is listed as 0.3 and the “hERG IC20 / TLR9 IC50” value is reported as 0.2. At CYP2D6, the inhibition at 10 min, 10 µM was found to be 52.5%. In addition, the IC50 on hTLR9 was more than 2 µM.
On to `C[C@@H]1CN(c2ccc(C#N)c3ncccc23)C[C@H](CN2CCN(c3ccc4c(c3)CNCC4)CC2)O1` [Example 9, 5-[(2R,6S)-2-methyl-6-[[4-(1,2,3,4-tetrahydroisoquinolin-7-yl)piperazin-1-yl]methyl]morpholin-4-yl]quinoline-8-carbonitrile], for which, at hERG channel, the IC50 was more than 20 µM, the 20% effect level (IC20) was put at 6.16 µM, the “hERG IC20 / TLR8 IC50” value is 410.5 and the “hERG IC20 / TLR7 IC50” value is given as 148.0. Further, the “hERG IC20 / TLR9 IC50” value on hERG channel was 80.4. In addition, on CYP2D6, the inhibition at 10 min, 10 µM was -2.5%.
As to `C[C@@H]1CN(c2ccc(C#N)c3ncccc23)C[C@H](CN2CCN(c3cnc4c(c3)CNC4)CC2)O1` [Example 10, 5-[(2S,6R)-2-[[4-(6,7-dihydro-5H-pyrrolo[3,4-b]pyridin-3-yl)piperazin-1-yl]methyl]-6-methyl-morpholin-4-yl] quinoline-8-carbonitrile], at hERG channel, the IC50 is more than 20 µM, the IC20 was more than 10 µM, the “hERG IC20 / TLR8 IC50” value was more than 442.5 and the “hERG IC20 / TLR7 IC50” value is more than 289.9. For the same compound, the “hERG IC20 / TLR9 IC50” value at hERG channel was more than 187.3. Besides, at CYP2D6, the inhibition at 10 min, 10 µM is 2.5%.
